Experimental data from patent US7772260B2, “Imidazo[2,1-b]-1,3,4-thiadiazole sulfonamides” (Aegera Therapeutics Inc., priority 2001, dated 2010).
Structures can show the parent of a compound that is named as a salt. Where two headings read alike, the source gives them in different places.

Assays:
SCG neurons [1] = assay: Protection of SCG neurons from anti-NGF killing; type: cell-based, Sprague Dawley rats; conditions: Rattus norvegicus, Neuron, anti-NGF antibody, serum and NGF free 48 hours, Alamar Blue, +/−1 uM, read-out: IC(50), rescue from anti-NGF killing of SCG neurons
Method: Neurotrophins are critical to the growth, development, and survival of small fiber neurons of the PNS. SCG neurons are neurons of the PNS that undergo apoptosis upon NGF withdrawal. In a typical experiment SCG neurons are cultured in the presence of NGF, which induces survival and neurite out-growth. After 5 days the NGF is removed by either the addition of anti-NGF polyclonal antibody (Sigma) or by repeated washings (4 times) with NGF free media, resulting in the apoptosis of up to 90% of the neurons after 48 hours, as measured by MTS staining.
After 4 days the cells were treated with anti-NGF antibody (Sigma). At this time compound was added and the cells were maintained serum and NGF free for 48 hours, at which time viability was assessed using Alamar Blue (Medicorp) staining.

SCG neurons [2] = assay: cells; type: cell-based, Sprague Dawley rats; conditions: Rattus norvegicus, Neuron
Method: Taxol™ is regularly used in breast cancer chemotherapy. In cancer cells Taxol™ binds to the cyto-skeletal protein tubulin, thereby inhibiting normal microtubular assembly and inducing cellular apoptosis. Despite its potency as an anti-tumour agent, Taxol™ is also toxic to neurons, inducing dose limiting peripheral neuropathies. The addition of Taxol™ (100 ng/mL) to cultured SCG neurons induces the degradation or loss of upwards of 80% of the neurons.
FIG. 1 illustrates the protection provided by compound 1 (referred to here as AEG3482) against Taxol™ induced killing. PI Sprague Dawley rat SCG neurons were cultured and incubated with NGF (50 ng/mL) for 5 days.

CA II = CA II (Homo sapiens, UniProt P00918); assay: CA II inhibition; type: biochemical
Method: CA II inhabition was measured using the protocol described by Pocker, Y.'Stone, J. Biochemistry 1967, 6, 668.

[3] = Taxol™ (50 ng/mL), viability 48 hours later, MTS, read-out: IC(50), protection of SCG neurons from Taxol killing
[4] = read-out: IC(50), CA II inhibition

IC50 (CA II; [4])	SMILES	IC50 (SCG neurons [1])	IC50 (SCG neurons [2]; [3])	also measured
0.581 µM	CCSc1c(F)c(F)c(-c2cn3nc(S(N)(=O)=O)sc3n2)c(F)c1F [Compound 7, 6-(4-Ethylthio-2,3,5,6-tetrafluorophenyl)imidazo[2,1-b]-1,3,4-thiadiazole-2-sulfonamide]		4 µM	
0.179 µM	COc1ccc(-c2cn3nc(S(N)(=O)=O)sc3n2)cc1 [Compound 17, 6-(4-Methoxyphenyl)imidazo[2,1-b]-1,3,4-thiadiazole-2-sulfonamide]		3 µM	
4.05 µM	NS(=O)(=O)c1nn2cc(-c3cccc(Br)c3)nc2s1 [Compound 13, 6-(3-bromophenyl)imidazo[2,1-b]-1,3,4-thiadiazole-2-sulfonamide]		7 µM	
0.466 µM	CC(C)(C)c1ccc(-c2cn3nc(S(N)(=O)=O)sc3n2)cc1 [Compound 49, 6-(4-tert-butylphenyl)imidazo[2,1-b]-1,3,4-thiadiazole-2-sulfonamide]		5 µM	
0.404 µM	NS(=O)(=O)c1nn2cc(-c3ccc4c(c3)OCO4)nc2s1 [Compound 20, 6-(1,3-Benzodioxol-5-yl)imidazo[2,1-b]-1,3,4-thiadiazole-2-sulfonamide]		15 µM	
0.361 µM	Cc1ccc(-c2cn3nc(S(N)(=O)=O)sc3n2)cc1 [Compound 47, 6-(4-Methylphenyl)imidazo[2,1-b]-1,3,4-thiadiazole-2-sulfonamide]		6 µM	
11.3 µM	CN(C)S(=O)(=O)c1nn2cc(-c3ccccc3)nc2s1 [Compound 139, 6-Phenyl-imidazo[2,1-b]-1,3,4-thiadiazole-2-N,N-dimethylsulfonamide]		10 µM	
0.217 µM	NS(=O)(=O)c1nn2cc(-c3ccc(F)cc3)nc2s1 [Compound 4, 6-(4-Fluorophenyl)imidazo[2,1-b]-1,3,4-thiadiazole-2-sulfonamide]		5 µM	
0.613 µM	NS(=O)(=O)c1nn2cc(-c3cccc(OC(F)(F)F)c3)nc2s1 [Compound 24, 6-(3-trifloromethoxyphenyl)imidazo[2,1-b]-1,3,4-thiadiazole-2-sulfonamide]		7 µM	
0.199 µM	NS(=O)(=O)c1nn2cc(-c3cccc([N+](=O)[O-])c3)nc2s1 [Compound 37, 6-(3-Nitrophenyl)imidazo[2,1-b]-1,3,4-thiadiazole-2-sulfonamide]		10 µM	
0.577 µM	NS(=O)(=O)c1nn2cc(-c3ccc(Cl)c([N+](=O)[O-])c3)nc2s1 [Compound 38, 6-(3-nitro-4-chlorophenyl)imidazo[2,1-b]-1,3,4-thiadiazole-2-sulfonamide]		3 µM	
1.8 µM	NS(=O)(=O)c1nn2cc(-c3ccc(Cl)c(Cl)c3)nc2s1 [Compound 11, 6-(3,4-Dichlorophenyl)imidazo[2,1-b]-1,3,4-thiadiazole-2-sulfonamide]		3 µM	
1.59 µM	NS(=O)(=O)c1nn2cc(-c3ccc(Cl)c(Cl)c3Cl)nc2s1 [Compound 12, 6-(2,3,4-trichlorophenyl)imidazo[2,1-b]-1,3,4-thiadiazole-2-sulfonamide]		5 µM	
0.346 µM	N#Cc1cccc(-c2cn3nc(S(N)(=O)=O)sc3n2)c1 [Compound 41, 6-(3-cyanophenyl)imidazo[2,1-b]-1,3,4-thiadiazole-2-sulfonamide]		3 µM	
0.373 µM	COc1ccc(-c2cn3nc(S(N)(=O)=O)sc3n2)c(OC)c1 [Compound 19, 6-(2,4-Dimethoxyphenyl)imidazo[2,1-b]-1,3,4-thiadiazole-2-sulfonamide]		15 µM	
0.272 µM	N#Cc1ccc(-c2cn3nc(S(N)(=O)=O)sc3n2)cc1 [Compound 42, 6-(4-cyanophenyl)imidazo[2,1-b]-1,3,4-thiadiazole-2-sulfonamide]		3 µM	
0.192 µM	NS(=O)(=O)c1nn2cc(-c3ccc(F)c(F)c3)nc2s1 [Compound 5, 6-(3,4-Difluorophenyl)imidazo[2,1-b]-1,3,4-thiadiazole-2-sulfonamide]		5 µM	
0.15 µM	NS(=O)(=O)c1nn2cc(-c3ccccn3)nc2s1 [Compound 105, 6-(2-Pyridyl)imidazo[2,1-b]-1,3,4-thiadiazole-2-sulfonamide]		7 µM	

Further lines, the compound ahead of its results:

SMILES	IC50 (CA II; [4])	IC50 (SCG neurons [1])	IC50 (SCG neurons [2]; [3])	also measured
NS(=O)(=O)c1nn2cc(-c3ccc(Oc4cccc(Br)c4)cc3)nc2s1 [Compound 94, 6-(3-bromophenoxyphenyl)imidazo[2,1-b]-1,3,4-thiadiazole-2-sulfonamide]		10 µM		
COc1ccc(-c2cccc(-c3cn4nc(S(N)(=O)=O)sc4n3)c2)cc1 [Compound 86, 6-(4′methoxybiphen-3-yl)imidazo[2,1-b]-1,3,4-thiadiazole-2-sulfonamide]		17 µM		
NS(=O)(=O)c1nn2cc(-c3ccc(Oc4ccccc4Br)cc3)nc2s1 [Compound 93, 6-(2-bromophenoxyphenyl)imidazo[2,1-b]-1,3,4-thiadiazole-2-sulfonamide]		7 µM		
NS(=O)(=O)c1nn2cc(-c3ccc(Oc4ccc(F)c(F)c4)cc3)nc2s1 [Compound 89, 6-(4-(3,4-difluorophenoxy)phenyl)imidazo[2,1-b]-1,3,4-thiadiazole-2-sulfonamide]		10 µM		
CC(C)c1ccc(Oc2ccc(-c3cn4nc(S(N)(=O)=O)sc4n3)cc2)cc1 [Compound 97, 6-(4-(4-iso-propylphenoxy)phenyl)imidazo[2,1-b]-1,3,4-thiadiazole-2-sulfonamide]		7 µM		
NS(=O)(=O)c1nn2cc(-c3cccc(F)c3)nc2s1 [Compound 3, 6-(3-Fluorophenyl)imidazo[2,1-b]-1,3,4-thiadiazole-2-sulfonamide]		10 µM		
COc1cc(-c2cn3nc(S(N)(=O)=O)sc3n2)ccc1OCCOCc1ccccc1 [Compound 35]		> 30 µM		
NS(=O)(=O)c1nn2cc(-c3ccc(Oc4ccc(Cl)c(Cl)c4)cc3)nc2s1 [Compound 92, 6-(3,4-dichlorophenoxyphenyl)imidazo[2,1-b]-1,3,4-thiadiazole-2-sulfonamide]		7 µM		
NS(=O)(=O)c1nn2cc(-c3ccc(-c4cccc(C(F)(F)F)c4)cc3)nc2s1 [Compound 150, 6-(3′-trifluoromethylbiphen-4-yl)imidazo[2,1-b]-1,3,4-thiadiazole-2-sulfonamide sodium salt]				IC50 (SCG neurons [1]; 48 h): 7 µM
COc1cc(-c2cn3nc(S(N)(=O)=O)sc3n2)ccc1OCCCOCc1ccccc1 [Compound 36]		17 µM		
NS(=O)(=O)c1nn2cc(-c3ccc(Oc4ccc(Cl)cc4)cc3)nc2s1 [Compound 91, 6-(4-chlorophenoxyphenyl)imidazo[2,1-b]-1,3,4-thiadiazole-2-sulfonamide]		7 µM		
NS(=O)(=O)c1nn2cc(-c3ccc(-c4ccsc4)cc3)nc2s1 [Compound 85, 6-(thiophen-3-yl-phenyl)imidazo[2,1-b]-1,3,4-thiadiazole-2-sulfonamide]		> 30 µM		
CNS(=O)(=O)c1nn2cc(-c3ccccc3)nc2s1 [Compound 137, 6-Phenyl-imidazo[2,1-b]-1,3,4-thiadiazole-2-N-methylsulfonamide]			10 µM	IC50 (SCG neurons [2]; read-out: IC(50) against Taxol killing of SCGs): 7 µM; decrease in CAII activity relative to compound 1 (CA II; compound 137 versus compound 1): 100 fold; IC50 (CA II; read-out: CAII(50) / CAII IC(50)): 2.06 µM
COc1ccc(Oc2ccc(-c3cn4nc(S(N)(=O)=O)sc4n3)cc2)cc1 [Compound 98, 6-(4-(4-methoxyphenoxy)phenyl)imidazo[2,1-b]-1,3,4-thiadiazole-2-sulfonamide]		17 µM		
NS(=O)(=O)c1nn2cc(-c3ccc(-c4ccc5c(c4)OCO5)cc3)nc2s1 [Compound 79]		7 µM		
NS(=O)(=O)c1nn2cc(-c3ccccc3F)nc2s1 [Compound 2, 6-(2-Fluorophenyl)imidazo[2,1-b]-1,3,4-thiadiazole-2-sulfonamide]		20 µM		
NS(=O)(=O)c1nn2cc(-c3ccccn3)nc2s1 [Compound 106, 6-(2-Pyridyl)imidazo[2,1-b]-1,3,4-thiadiazole-2-sulfonamide HCl]		7 µM		
NS(=O)(=O)c1nn2cc(-c3ccc4c(c3)OC3(CCCCC3)O4)nc2s1 [Compound 23, 6-(2-spiro(cyclohexyl)benzo-1,3-dioxol-5-yl)imidazo[2,1,-b]-1,3,4-thiadiazole-2-sulfonamide]		25 µM		
NS(=O)(=O)c1nn2cc(-c3ccc(Oc4ccc(F)cc4)cc3)nc2s1 [Compound 88]		10 µM		
NS(=O)(=O)c1nn2cc(-c3c(F)c(F)c(N4CCOCC4)c(F)c3F)nc2s1 [Compound 9, 6-(4-Morpholino-2,3,5,6-tetrafluorophenyl)imidazo[2,1-b]-1,3,4-thiadiazole-2-sulfonamide]		8 µM		
